Data: patent publication US20080039410A1, “Inositol 1,4,5-Trisphosphate Receptor Mutants and Uses Thereof” (priority 2004, published 2008)

Columns and labels:
S2− InsP3R-1 [1] = assay: Flash photolysis of caged InsP3 (ci-IP3/PM), Fluo-4, Dt-40 3ko cells expressing S2− InsP3R-1 constructs; format: cell-based, rat
Experimental: Transfected cells were simultaneously loaded with the visible wavelength indicator Fluo-4 and a cell-permeable form of caged inositol trisphosphate (ci-IP3/PM) for 30 min. ci-IP3/PM is a homologue of cm-IP3/PM. The 2- and 3-hydroxyls of the inositol ring are protected by an isopropylidene group in ci-IP3/PM and are protected by a methoxymethylene group in cm-IP3/PM (45). Like cm-IP3/PM, ci- IP3/PM diffuses across cell membranes, and the PM group is hydrolyzed by cellular esterases, and Ca^2+ release can be induced upon photouncaging as i-IP3 is liberated from the cage and acts in a similar fashion to InSP3 at InsP3R^2. A further period of 30 min was allowed for de-esterification of both dye and cage. Cells were illuminated at 488±10 nm and fluorescence collected through a 525±25-nm bandpass filter and captured using the Till Photonics imaging suite. […] Photolytic release was performed as described previously by using a pulsed xenon arc lamp (Till Photonics). A high intensity (0.5-5 ms duration; 80 J) discharge of UV light (360±7.5 nm) was reflected onto the plane of focus by using a DM400 dichroic mirror and Nikon 40× oil immersion objective, 1.3 NA.
To investigate the consequences of InsP3R-1 phosphorylation, the Ca^2+ release properties of phosphomimetic mutations in the functionally important sites in both S2+ and S2− InsP3R-1 was analyzed in Dt-40 3ko cells. This cell line provides the only known InsP3R null background (42, 43). In initial experiments, a comparison was made between the sensitivity of Ca^2+ release by InsP3R-1 phosphomimetic mutations versus nonphosphorylatable alanine mutations at the sites. Dt-40 3ko cells were transfected with DNA encoding HcRed to facilitate identification of transfected cells and either S2− S1589E/S1755E InsP3R-1 (S2−EE) or S2− S1589A/S1755A (S2−AA). Ca^2+ release was monitored following flash photolysis of ci-IP3, a cell-permeable form of caged InSP3. This experimental paradigm provides a relatively direct assessment of the effects of InsP3R-1 phosphorylation on the Ca^2+ release process. […]
Target sequence in this assay (P29994 1-604 limits assumed): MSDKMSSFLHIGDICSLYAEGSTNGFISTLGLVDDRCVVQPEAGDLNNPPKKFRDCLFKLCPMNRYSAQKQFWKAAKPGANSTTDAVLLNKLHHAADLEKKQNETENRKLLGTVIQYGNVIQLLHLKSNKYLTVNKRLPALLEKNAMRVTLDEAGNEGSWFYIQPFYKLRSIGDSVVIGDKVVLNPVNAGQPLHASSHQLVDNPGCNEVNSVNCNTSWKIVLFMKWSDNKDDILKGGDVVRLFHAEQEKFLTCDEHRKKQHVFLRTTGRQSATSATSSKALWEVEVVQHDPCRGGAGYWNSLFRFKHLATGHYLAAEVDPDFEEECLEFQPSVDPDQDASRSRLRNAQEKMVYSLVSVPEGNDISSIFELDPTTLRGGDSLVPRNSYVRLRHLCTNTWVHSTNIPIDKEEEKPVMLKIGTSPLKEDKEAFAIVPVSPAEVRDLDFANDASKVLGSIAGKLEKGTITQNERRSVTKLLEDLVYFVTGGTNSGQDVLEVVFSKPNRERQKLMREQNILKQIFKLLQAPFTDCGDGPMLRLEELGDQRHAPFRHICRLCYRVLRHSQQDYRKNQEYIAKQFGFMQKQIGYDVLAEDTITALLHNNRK

S2− InsP3R-1 [2] = assay: Potentiation of CCh-induced Ca2+ release after PKG activation (8-Br cGMP), S2− InsP3R-1 constructs in DT-40 3ko cells; format: cell-based, rat
Experimental: Transfected DT-40 3ko cells were washed once in a HEPES-buffered physiological saline solution (HEPES-PSS) containing (in mM) 5.5 glucose, 137 NaCl, 0.56 MgCl2, 4.7 KCl, 1 Na2HPO4, 10 HEPES (pH 7.4), 1.2 CaCl2 and 1% w/v Bovine Serum Albumin. Cells were then resuspended in BSA HEPES-PSS with 1 μM Fura-2 (AM), placed on a 15 mm glass coverslip in a low volume perfusion chamber (Warner Instruments) and allowed to adhere for 30 minutes at room temperature. Cells were perfused continually for 10 minutes with HEPES-PSS before experimentation to allow Fura-2 de-esterification. A field of cells for each experiment was chosen that contained a wide range of transfection efficiency based upon the intensity of red fluorescence emitted when excited at 560 nm. [Ca^2+]i imaging was performed essentially as previously described using an inverted epifluorescence Nikon microscope with a 40× oil immersion objective lens (numerical aperture, 1.3). […] Fluorescence images were captured and digitized with a digital camera driven by TILL Photonics software. […] 340/380 ratio images were calculated online and stored immediately to hard disk.
The effects of treatment were determined by normalizing the peak change in fluorescence ratio by stimulation following forskolin or 8-Br cGMP exposure to that of stimulation in control HEPES-PSS. […]

Substance | cells showing Ca^2+ release (>0.05% ΔF/F) (S2− InsP3R-1 [1]; 0.5 ms UV discharge) [%] | cells showing Ca^2+ release (S2− InsP3R-1 [1]; 1.25 ms UV flash) | response to photolysis of ci-IP3 versus nonphosphorylatable mutant (S2− InsP3R-1 [1]; UV flash 0.5-5 ms) | effect of 8-Br cGMP treatment on CCh-induced Ca^2+ release (S2− InsP3R-1 [2]; 10 μM 8-Br cGMP) | Ca^2+ release after PKG activation (S2− InsP3R-1 [2]; S2 − InsP3R-1 constructs, Table 2)
S2−EE: phosphomimetic S1589E/S1755E mutant of the short splice variant | ~60 | all cells | lower threshold of UV light exposure | – | –
S2−WT: wild-type rat type-1 InsP3 receptor, peripheral short S2− splice variant (SEQ ID NO: 17) | – | – | – | no effect | no change
